Earlier results in patent publication US20150328159A1, “Composition” (Innovata Limited, priority 2009, published 2015).

solubility in organic solvents: insoluble
Substance: hyaluronic acid
